According to US20020137929A1, “1 - (3-heterocyclylphenyl) isothiourea, -isourea, -guanidine and -amidine herbicidal agents” (Intellectual Property Department, BASF Aktiengesellschaft, priority 1998, published 2002):

Assays:
SETVI (Foxtail, Green) [1] = test: Preemergence herbicidal evaluation; assay type: in vivo, Setaria viridis; conditions: preemergence, rated 4-5 weeks after treatment, 0-9 scale
Outline: (§1)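 Greenhouse preemergence test: seed-soil mix sown on ~1 inch soil; aqueous acetone spray at equivalent of ~0.0156–0.500 kg/ha; greenhouse-held and watered; scored 0–9 visually at 4–5 weeks.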

SETVI (Foxtail, Green) [2] = test: Postemergence herbicidal evaluation; assay type: in vivo, Setaria viridis; conditions: postemergence
Outline: (§2)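 Seedlings grown about two weeks were sprayed at 40 psi with compound dispersed in 50/50 acetone/water plus 0.5% TWEEN 20, at about 0.0156 to 0.500 kg/ha. Plants were kept in the greenhouse and scored 4–5 weeks later on a 0–9 visual scale against untreated controls.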

ORYSAT (Rice, Tebonnet) = test: Postemergence herbicidal evaluation; assay type: in vivo, Oryza sativa, (L.) Tebonnet; conditions: postemergence
Outline: as §2

ECHCG (Barnyardgrass) = test: Preemergence herbicidal evaluation; assay type: in vivo, Echinochloa crus-galli; conditions: preemergence, rated 4-5 weeks after treatment, 0-9 scale
Outline: as §1

[3] = test system: ECHORC (Watergrass (Calif.)); test: Preemergence weed control under flooded paddy conditions; assay type: in vivo, Echinochloa oryzoides; conditions: rated 3-4 weeks after treatment
Outline: (§3)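 Seeds or propagules sown in silt loam kept flooded 1.5-3 cm; compounds in 50/50 acetone/water pipetted into flood water at about 0.0313 to 0.500 kg/ha. Greenhouse; visual 0-9 rating versus untreated control 3-4 weeks after treatment.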

ZEAMX (Corn, Field) [4] = test: Preemergence herbicidal evaluation; assay type: in vivo, Zea mays; conditions: preemergence, rated 4-5 weeks after treatment, 0-9 scale
Outline: as §1

[5] = test system: TRZAWR (Wheat, Winter, cv Riband); test: Preemergence herbicidal evaluation; assay type: in vivo, Triticum aestivum; conditions: preemergence, rated 4-5 weeks after treatment, 0-9 scale
Outline: as §1

[6] = test system: ECHORC (Watergrass (Calif.)); test: Postemergence weed control under flooded paddy conditions; assay type: in vivo, Echinochloa oryzoides; conditions: postemergence weeds, rated 3 to 4 weeks after treatment
Outline: (§4)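 With weeds 3 to 5 cm tall and rice at the 1.5 to 2.5 leaf stage, containers were flooded and water held 1.5 to 3 cm above soil. Compounds in 50/50 v/v aqueous/acetone went into the flood water at about 0.0313 to 0.500 kg/ha a.i. Effects were visually rated 0–9 against controls after three to four weeks in the greenhouse.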

CYPSE (Flatsedge) [7] = test: as above; assay type: in vivo, Cyperus serotinus; conditions: postemergence weeds, rated 3 to 4 weeks after treatment
Outline: as §4

CYPIR (Rice Flatsedge) [8] = test: as above; assay type: in vivo, Cyperus iria; conditions: postemergence weeds, rated 3 to 4 weeks after treatment
Outline: as §4

[9] = test system: SAGPY (Arrowhead (Pygmaea)); test: as above; assay type: in vivo, Sagittaria pygmaea; conditions: postemergence weeds, rated 3 to 4 weeks after treatment
Outline: as §4

CYPIR (Rice Flatsedge) [10] = test: Preemergence weed control under flooded paddy conditions; assay type: in vivo, Cyperus iria; conditions: rated 3-4 weeks after treatment
Outline: as §3

ZEAMX (Corn, Field) [11] = test: Postemergence herbicidal evaluation; assay type: in vivo, Zea mays; conditions: postemergence
Outline: as §2

CYPSE (Flatsedge) [12] = test: Preemergence weed control under flooded paddy conditions; assay type: in vivo, Cyperus serotinus; conditions: rated 3-4 weeks after treatment
Outline: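 Herbicidal effect is scored visually on a 0-9 scale against an untreated control, three to four weeks after compounds are pipetted into the flood water (1.5 to 3 cm deep) over seeds planted in silt loam at 0.5 cm depth. Rates: about 0.0313 to 0.500 kg/ha.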

CN1C(=O)C(CC(N)=O)SC1=Nc1cc(-n2c(=O)cc(C(F)(F)F)n(C)c2=O)c(F)cc1Cl (centres unmarked) [Compound 92, 2-{{2-Chloro-5-[3,6-dihydro-3-methyl-2,6-dioxo-4-(trifluoromethyl)-1(2H)-pyrimidinyl]-4-fluorophenyl}imino}-3-methyl-4-oxo-5-thiazolidineacetamide]
SETVI rating (SETVI (Foxtail, Green) [1]; 0.0156 kg/ha): 0.0 | SETVI rating (SETVI (Foxtail, Green) [1]; 0.0313 kg/ha): 0.0 | SETVI rating (SETVI (Foxtail, Green) [1]; 0.0625 kg/ha): 0.0 | SETVI rating (SETVI (Foxtail, Green) [1]; 0.1250 kg/ha): 0.0 | SETVI rating (SETVI (Foxtail, Green) [1]; 0.2500 kg/ha): 9.0 | SETVI herbicidal rating (SETVI (Foxtail, Green) [2]; rate 0.0158 kg/ha): 0.0 | SETVI herbicidal rating (SETVI (Foxtail, Green) [2]; rate 0.0315 kg/ha): 9.0 | SETVI herbicidal rating (SETVI (Foxtail, Green) [2]; rate 0.0630 kg/ha): 9.0 | ORYSAT herbicidal rating (ORYSAT (Rice, Tebonnet); rate 0.0158 kg/ha): 1.5 | ORYSAT herbicidal rating (ORYSAT (Rice, Tebonnet); rate 0.0315 kg/ha): 2.0 | ORYSAT herbicidal rating (ORYSAT (Rice, Tebonnet); rate 0.0630 kg/ha): 3.5 | ECHCG rating (ECHCG (Barnyardgrass); 0.0156 kg/ha): 0.0 | ECHCG rating (ECHCG (Barnyardgrass); 0.0313 kg/ha): 0.0 | ECHCG rating (ECHCG (Barnyardgrass); 0.0625 kg/ha): 0.0 | ECHCG rating (ECHCG (Barnyardgrass); 0.1250 kg/ha): 0.0 | ECHCG rating (ECHCG (Barnyardgrass); 0.2500 kg/ha): 0.0 | ECHORC herbicidal effect rating ([3]; 0.0313 kg/ha): 0.0 | ECHORC herbicidal effect rating ([3]; 0.0625 kg/ha): 0.0 | ECHORC herbicidal effect rating ([3]; 0.1250 kg/ha): 2.0 | ECHORC herbicidal effect rating ([3]; 0.2500 kg/ha): 3.0 | ZEAMX rating (ZEAMX (Corn, Field) [4]; 0.0156 kg/ha): 0.0 | ZEAMX rating (ZEAMX (Corn, Field) [4]; 0.0313 kg/ha): 0.0 | ZEAMX rating (ZEAMX (Corn, Field) [4]; 0.0625 kg/ha): 0.0 | ZEAMX rating (ZEAMX (Corn, Field) [4]; 0.1250 kg/ha): 0.0 | ZEAMX rating (ZEAMX (Corn, Field) [4]; 0.2500 kg/ha): 6.0 | TRZAWR rating ([5]; 0.0156 kg/ha): 0.0 | TRZAWR rating ([5]; 0.0313 kg/ha): 0.0 | TRZAWR rating ([5]; 0.0625 kg/ha): 0.0 | TRZAWR rating ([5]; 0.1250 kg/ha): 0.0 | TRZAWR rating ([5]; 0.2500 kg/ha): 2.0 | Herbicidal rating ECHORC ([6]; Rate 0.0313 kg/ha): 0.0 | Herbicidal rating ECHORC ([6]; Rate 0.0625 kg/ha): 0.0 | Herbicidal rating ECHORC ([6]; Rate 0.1250 kg/ha): 2.0 | Herbicidal rating ECHORC ([6]; Rate 0.2500 kg/ha): 3.0 | Herbicidal rating CYPSE (CYPSE (Flatsedge) [7]; Rate 0.0313 kg/ha): 9.0 | Herbicidal rating CYPSE (CYPSE (Flatsedge) [7]; Rate 0.0625 kg/ha): 9.0 | Herbicidal rating CYPSE (CYPSE (Flatsedge) [7]; Rate 0.1250 kg/ha): 9.0 | Herbicidal rating CYPSE (CYPSE (Flatsedge) [7]; Rate 0.2500 kg/ha): 9.0 | Herbicidal rating CYPIR (CYPIR (Rice Flatsedge) [8]; Rate 0.0313 kg/ha): 3.0 | Herbicidal rating CYPIR (CYPIR (Rice Flatsedge) [8]; Rate 0.0625 kg/ha): 3.0 | Herbicidal rating CYPIR (CYPIR (Rice Flatsedge) [8]; Rate 0.1250 kg/ha): 5.0 | Herbicidal rating CYPIR (CYPIR (Rice Flatsedge) [8]; Rate 0.2500 kg/ha): 7.0 | Herbicidal rating SAGPY ([9]; Rate 0.0313 kg/ha): 0.0 | Herbicidal rating SAGPY ([9]; Rate 0.0625 kg/ha): 0.0 | Herbicidal rating SAGPY ([9]; Rate 0.1250 kg/ha): 4.0 | Herbicidal rating SAGPY ([9]; Rate 0.2500 kg/ha): 9.0 | CYPIR herbicidal effect rating (CYPIR (Rice Flatsedge) [10]; 0.0313 kg/ha): 3.0 | CYPIR herbicidal effect rating (CYPIR (Rice Flatsedge) [10]; 0.0625 kg/ha): 3.0 | CYPIR herbicidal effect rating (CYPIR (Rice Flatsedge) [10]; 0.1250 kg/ha): 5.0 | CYPIR herbicidal effect rating (CYPIR (Rice Flatsedge) [10]; 0.2500 kg/ha): 7.0 | ZEAMX herbicidal rating (ZEAMX (Corn, Field) [11]; rate 0.0158 kg/ha): 6.0 | ZEAMX herbicidal rating (ZEAMX (Corn, Field) [11]; rate 0.0315 kg/ha): 7.5 | ZEAMX herbicidal rating (ZEAMX (Corn, Field) [11]; rate 0.0630 kg/ha): 8.0 | CYPSE herbicidal effect rating (CYPSE (Flatsedge) [12]; 0.0313 kg/ha): 9.0 | CYPSE herbicidal effect rating (CYPSE (Flatsedge) [12]; 0.0625 kg/ha): 9.0 | CYPSE herbicidal effect rating (CYPSE (Flatsedge) [12]; 0.1250 kg/ha): 9.0 | CYPSE herbicidal effect rating (CYPSE (Flatsedge) [12]; 0.2500 kg/ha): 9.0

C=CCN1C(=O)C(CC(=O)OC(C)C(=O)OCC)SC1=Nc1cc(-n2c(=O)ccn(C)c2=O)c(F)cc1Cl [Compound 94, 3-Allyl-2-{{2-chloro-5-[3,6-dihydro-3-methyl-2,6-dioxo-1(2H)-pyrimidinyl]-4-fluorophenyl}imino}-4-oxo-5-thiazolidineacetic acid, ester with ethyl lactate, (R,S)-]
SETVI rating (SETVI (Foxtail, Green) [1]; 0.0156 kg/ha): 0.0 | SETVI rating (SETVI (Foxtail, Green) [1]; 0.0313 kg/ha): 0.0 | SETVI rating (SETVI (Foxtail, Green) [1]; 0.0625 kg/ha): 0.0 | SETVI rating (SETVI (Foxtail, Green) [1]; 0.1250 kg/ha): 4.0 | SETVI rating (SETVI (Foxtail, Green) [1]; 0.2500 kg/ha): 9.0 | SETVI herbicidal rating (SETVI (Foxtail, Green) [2]; rate 0.0158 kg/ha): 9.0 | SETVI herbicidal rating (SETVI (Foxtail, Green) [2]; rate 0.0315 kg/ha): 9.0 | SETVI herbicidal rating (SETVI (Foxtail, Green) [2]; rate 0.0630 kg/ha): 9.0 | ORYSAT herbicidal rating (ORYSAT (Rice, Tebonnet); rate 0.0158 kg/ha): 2.0 | ORYSAT herbicidal rating (ORYSAT (Rice, Tebonnet); rate 0.0315 kg/ha): 4.5 | ORYSAT herbicidal rating (ORYSAT (Rice, Tebonnet); rate 0.0630 kg/ha): 5.0 | ECHCG rating (ECHCG (Barnyardgrass); 0.0156 kg/ha): 0.0 | ECHCG rating (ECHCG (Barnyardgrass); 0.0313 kg/ha): 0.0 | ECHCG rating (ECHCG (Barnyardgrass); 0.0625 kg/ha): 0.0 | ECHCG rating (ECHCG (Barnyardgrass); 0.1250 kg/ha): 0.0 | ECHCG rating (ECHCG (Barnyardgrass); 0.2500 kg/ha): 0.0 | ECHORC herbicidal effect rating ([3]; 0.0313 kg/ha): 0.0 | ECHORC herbicidal effect rating ([3]; 0.0625 kg/ha): 0.0 | ECHORC herbicidal effect rating ([3]; 0.1250 kg/ha): 2.0 | ECHORC herbicidal effect rating ([3]; 0.2500 kg/ha): 7.0 | ZEAMX rating (ZEAMX (Corn, Field) [4]; 0.0156 kg/ha): 0.0 | ZEAMX rating (ZEAMX (Corn, Field) [4]; 0.0313 kg/ha): 0.0 | ZEAMX rating (ZEAMX (Corn, Field) [4]; 0.0625 kg/ha): 0.0 | ZEAMX rating (ZEAMX (Corn, Field) [4]; 0.1250 kg/ha): 0.0 | ZEAMX rating (ZEAMX (Corn, Field) [4]; 0.2500 kg/ha): 6.0 | TRZAWR rating ([5]; 0.0156 kg/ha): 0.0 | TRZAWR rating ([5]; 0.0313 kg/ha): 0.0 | TRZAWR rating ([5]; 0.0625 kg/ha): 0.0 | TRZAWR rating ([5]; 0.1250 kg/ha): 0.0 | TRZAWR rating ([5]; 0.2500 kg/ha): 0.0 | Herbicidal rating ECHORC ([6]; Rate 0.0313 kg/ha): 0.0 | Herbicidal rating ECHORC ([6]; Rate 0.0625 kg/ha): 0.0 | Herbicidal rating ECHORC ([6]; Rate 0.1250 kg/ha): 2.0 | Herbicidal rating ECHORC ([6]; Rate 0.2500 kg/ha): 7.0 | Herbicidal rating CYPSE (CYPSE (Flatsedge) [7]; Rate 0.1250 kg/ha): 6.0 | Herbicidal rating CYPSE (CYPSE (Flatsedge) [7]; Rate 0.2500 kg/ha): 9.0 | Herbicidal rating CYPIR (CYPIR (Rice Flatsedge) [8]; Rate 0.0313 kg/ha): 0.0 | Herbicidal rating CYPIR (CYPIR (Rice Flatsedge) [8]; Rate 0.0625 kg/ha): 3.0 | Herbicidal rating CYPIR (CYPIR (Rice Flatsedge) [8]; Rate 0.1250 kg/ha): 4.0 | Herbicidal rating CYPIR (CYPIR (Rice Flatsedge) [8]; Rate 0.2500 kg/ha): 4.0 | Herbicidal rating SAGPY ([9]; Rate 0.0313 kg/ha): 0.0 | Herbicidal rating SAGPY ([9]; Rate 0.0625 kg/ha): 0.0 | Herbicidal rating SAGPY ([9]; Rate 0.1250 kg/ha): 5.0 | Herbicidal rating SAGPY ([9]; Rate 0.2500 kg/ha): 9.0 | CYPIR herbicidal effect rating (CYPIR (Rice Flatsedge) [10]; 0.0313 kg/ha): 0.0 | CYPIR herbicidal effect rating (CYPIR (Rice Flatsedge) [10]; 0.0625 kg/ha): 3.0 | CYPIR herbicidal effect rating (CYPIR (Rice Flatsedge) [10]; 0.1250 kg/ha): 4.0 | CYPIR herbicidal effect rating (CYPIR (Rice Flatsedge) [10]; 0.2500 kg/ha): 4.0 | ZEAMX herbicidal rating (ZEAMX (Corn, Field) [11]; rate 0.0158 kg/ha): 8.5 | ZEAMX herbicidal rating (ZEAMX (Corn, Field) [11]; rate 0.0315 kg/ha): 8.5 | ZEAMX herbicidal rating (ZEAMX (Corn, Field) [11]; rate 0.0630 kg/ha): 9.0 | CYPSE herbicidal effect rating (CYPSE (Flatsedge) [12]; 0.1250 kg/ha): 6.0 | CYPSE herbicidal effect rating (CYPSE (Flatsedge) [12]; 0.2500 kg/ha): 9.0
